Like-named read-outs stand apart in the source and are kept apart here.
Assays:
[1] = test system: GMPPNP-loaded H-Ras or GTP-loaded K-Ras; experiment: Fluorescence polarization competition assay with TAMRA-labeled probe R4007; type: binding, human; conditions: 120 nM Ras
How it was run: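 120 nM GMPPNP-loaded H-Ras or GTP-loaded K-Ras was preincubated with 30 nM TAMRA-labeled R4007 probe for 20 min at room temperature in Tris pH 7.5 buffer with MgCl2, EDTA and Triton X-100. Serially diluted competitor was then added for 60 min. Polarization was read at 535/595 nm, with Ki from a one-site Ki fit and IC50 from probe displacement.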

K-Ras G12D = target: T1, K-Ras G12D (Homo sapiens, UniProt P01116, G12D); experiment: Surface plasmon resonance (SPR) binding to immobilized K-Ras; conditions: for Kd / kd / kon: 25° C.; for kon: read-out: ka
T1 construct: For K-Ras, the construct was full-length; made in house
Method: Surface Plasmon Resonance (SPR) experiments were conducted at 25° C. using the ProteOn XPR36 system from BioRad Laboratories, Inc (Hercules, Calif.). […] Kinetic characterization of cyclomimetic binding was performed to determine kon, koff, and Kd. […] was co-injected with RAF-RBD to evaluate competitive binding. Data analysis was performed using BioRad ProteOn Manager software.

[2] = target: T2, GST-tagged RAF-RBD and biotinylated H-Ras loaded with GMPPNP (Homo sapiens, UniProt P01112, G12V); experiment: TR-FRET of the interaction between GST-tagged RAF-RBD and biotinylated H-Ras; type: binding; conditions: 12.5 nM Bio-H-Ras GMPPNP, 10 nM GST-RAF-RBD, FIG. 8C
T2 construct: made in house; host or cells: E. coli BL21 (DE3)
Method: The interaction between GST-tagged RAF-RBD and biotinylated H-Ras (Bio-H-Ras) loaded with GMPPNP was detected using TR-FRET. Assays were performed in 384 well plates (Proxiplate-384 plus, Perkin Elmer, Waltham, Mass.). Bio-H-Ras GMPPNP was diluted in assay buffer (50 mM Tris-HCl, pH 7.5, 5 mM MgCl2, 0.0025% Tween-80, 1 mM DTT, and 50 nM GMPPNP) at a final concentration of 12.5 nM. R4000 was serially diluted in DMSO, then diluted in assay buffer and incubated with Bio-H-Ras GMPPNP for 30 minutes at room temperature (1% DMSO final). GST-RAF-RBD was added to the assay (10 nM final) and incubated 60 minutes at room temperature. Europium cryptate conjugated-anti-GST (donor; Perkin Elmer, Waltham, Mass.) and streptavidin conjugated to SureLight-Allophycocyanin (acceptor; Perkin Elmer, Waltham, Mass.) was added to the wells at final concentrations of 1 nM and 1.25 nM, respectively. Reaction mixtures were incubated at room temperature for 2 hours then detected using an EnVision Multilabel Plate Reader (Perkin Elmer, Waltham, Mass.) with excitation at 340 nm and emission at 615 nm (donor) and 665 nm (acceptor). FRET ratios (615 emission/665 emission) were calculated per well. Data was analyzed using GraphPad Prism, and IC50 values were generated by fitting dose response data to a 4 parameter fit sigmoidal dose response curve. […]

[3] = Compound stability in mouse plasma; type: in vitro ADME; conditions: serum (method text and assay name say plasma), 37° C., pH 7.4
Method: Compounds were assayed for stability in mouse and rat plasma under the following conditions. Plasma was adjusted to pH 7.4. DMSO stocks at 10 mM concentration were prepared for the test compounds. Aliquots of the DMSO solutions were dosed into 1 mL of plasma, which had been pre-warmed to 37° C., at a final test compound concentration of 10 μM. The vials were kept in a benchtop Thermomixer® (Eppendorf, Hauppauge, N.Y.) for the duration of the experiment. Aliquots (100 μL) were taken at each timepoint and added to a 96-well plate that had been pre-filled with 300 μL of an acetonitrile solution containing mixture of the internal standards (metoprolol, propranalol and warfarin each at 500 ng/mL). Samples were stored at 4° C. until the end of the experiment. After the final timepoint was sampled, the plate was mixed and then centrifuged at 3,000 rpm for 10 minutes. Aliquots of the supernatant were removed and analyzed by LC-HRAMS.

IC50 ([1]; 30 nM R4007, FIG. 7B, read-out: half-maximal inhibitory concentration (IC50) for displacement of R4007): 20 nM
IC50 ([1]; 30 nM probe R4007, 60 minutes at room temperature, read-out: Probe displacement (nM IC50)): 28.6 nM
Kd (K-Ras G12D; K-Ras G12D loaded with GDP): 0.0044 µM
kd (K-Ras G12D; K-Ras G12D loaded with GDP): 0.003 s⁻¹
kon (K-Ras G12D; K-Ras G12D loaded with GDP): 680000 M⁻¹ s⁻¹
Kd (K-Ras G12D; K-Ras G12D loaded with GMPPNP): 0.0028 µM
kd (K-Ras G12D; K-Ras G12D loaded with GMPPNP): 0.0016 s⁻¹
kon (K-Ras G12D; K-Ras G12D loaded with GMPPNP): 570000 M⁻¹ s⁻¹
competitive binding on co-injection with RAF-RBD (K-Ras G12D; R4000 co-injected with RAF-RBD, FIG. 7A): additive signals
blocking of H-Ras binding to RAF [2]: does not block binding to RAF
half-life at 10 μM [3]: 5 h
Compound: CCC[C@H](NC(C)=O)C(=O)N[C@H]1CSCc2cccc(c2)CSC[C@@H](C(N)=O)NC(=O)CN(C)C(=O)[C@H](Cc2ccc(F)cc2)N(C)C(=O)[C@H](Cc2ccc(O)cc2)NC(=O)[C@H](Cc2c[nH]c3ncccc23)NC(=O)[C@H](c2ccccc2)NC(=O)[C@H](C)N(C)C(=O)[C@H](Cc2cnc[nH]2)NC(=O)[C@H](CCCCN)NC(=O)[C@H](C(C)(C)C)NC(=O)[C@H](Cc2ccc(O)cc2)NC1=O (relative stereo) [Compound R4000, ACE-NVA-CYS*-TYR-TBG-LYS-HIS-NMA-PHG-7AW-TYR-MFF-SAR-CYS*-NH2]
